Measured values published in patent US6608082B1, “Treatment of erectile dysfunction using isoquinoline compound melanocortin receptor ligands” (Lion Bioscience AG, priority 1998, dated 2003).
pIC50: −log10 of the molar value. Like-named read-outs stand apart in the source and are kept apart here. One block for each compound: values may come before it.

Tests used:
[1] = biological target: T1, MCR-1 (Homo sapiens, UniProt Q01726); test: Melanocortin receptor binding assay, competition with 125I-HP 467, HEK 293 cells expressing hMCR-1; details: for pIC50: read-out: MC-1 IC50
T1 construct: expressed in transfected cells; host or cells: HEK 293
Method in brief: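 Intact-cell competition binding, 2.5 hr at 37 °C, in PBS/10% calf serum/1 mM CaCl2; hMCR-4 cells at 4×10^3 per tube, hMCR-1 cells at 2×10^4 per tube. Filtration on BSA/CaCl2-soaked GF/B, cold 50 mM Tris pH 7.4 washes, scintillation count.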

[2] = biological target: T2, MCR-4 (Homo sapiens, UniProt P32245); test: Melanocortin receptor binding assay, competition with 125I-HP 467, HEK 293 cells expressing hMCR-4; details: for pIC50: read-out: MC-4 IC50
T2 construct: expressed in transfected cells; host or cells: HEK 293
Method: All cell culture media and reagents were obtained from GibcoBRL (Gaithersburg Md.), except for COSMIC CALF SERUM (HyClone; Logan Utah).
Cells were suspended in PBS, 10% COSMIC CALF SERUM and 1 mM CaCl2. Cell suspensions were prepared at a density of 2×10^4 cells/ml for HEK 293 cells expressing hMCR-3, hMCR-4 or hMCR-5, and 1×10^5 cells/ml for HEK 293 cells expressing hMCR-1. Suspensions were placed in a water bath and allowed to warm to 37° C. for 1 hr.
Binding assays were performed in a total volume of 250 μl for HEK 293 cells. […] To each tube was added 4×10^3 HEK 293 cells expressing hMCR-3, hMCR-4 or hMCR-5, or 2×10^4 cells expressing hMCR-1. Assays were incubated for 2.5 hr at 37° C.
GF/B filter plates were prepared by soaking for at least one hour in 5 mg/ml BSA and 10 mM CaCl2. Assays were filtered using a Brandel 96-well cell harvester (Brandel Inc.; Gaithersburg, Md.). The filters were washed four times with cold 50 mM Tris, pH 7.4, the filter plates were dehydrated for 2 hr and 35 μl of MICROSCINT was added to each well. Filter plates were counted using a Packard Topcount (Packard Instrument Co.) and data analyzed using GraphPad PRISM v2.0 (GraphPad Software Inc.; San Diego Calif.) and Microsoft EXCEL v5.0a (Microsoft Corp.; Redmond Wash.).
To assay isoquinoline compounds, binding assays were performed in duplicate in a 96 well format. […] A 0.2 ml aliquot of suspended cells was added to each well to give the cell numbers indicate above, and the cells were incubated at 37° C. for 2.5 hr. Cells were harvested on GF/B filter plates as described above and counted.

[3] = inhibition of binding of 125I-HP 467, HEK 293 cells expressing MCR-1, TRG 2414 library
[4] = inhibition of binding of 125I-HP 467, HEK 293 cells expressing MCR-4, TRG 2414 library
[5] = competition with 125I-HP 467, HEK 293 cells expressing MCR-1
[6] = competition with 125I-HP 467, HEK 293 cells expressing MCR-4
[7] = TRG 2406 and TRG 2407 libraries, inhibition of binding of 125I-HP 467
[8] = inhibition of binding of 125I-HP 467, HEK 293 cells expressing MCR-1
[9] = inhibition of binding of 125I-HP 467, HEK 293 cells expressing MCR-4
[10] = TRG 2414 library, inhibition of binding of 125I-HP 467, HEK 293 cells expressing MCR-1
[11] = TRG 2414 library, inhibition of binding of 125I-HP 467, HEK 293 cells expressing MCR-4
[12] = TRG 2408 and TRG 2409 libraries, inhibition of 125I-HP 467 binding

T2 sequence (P32245 whole entry): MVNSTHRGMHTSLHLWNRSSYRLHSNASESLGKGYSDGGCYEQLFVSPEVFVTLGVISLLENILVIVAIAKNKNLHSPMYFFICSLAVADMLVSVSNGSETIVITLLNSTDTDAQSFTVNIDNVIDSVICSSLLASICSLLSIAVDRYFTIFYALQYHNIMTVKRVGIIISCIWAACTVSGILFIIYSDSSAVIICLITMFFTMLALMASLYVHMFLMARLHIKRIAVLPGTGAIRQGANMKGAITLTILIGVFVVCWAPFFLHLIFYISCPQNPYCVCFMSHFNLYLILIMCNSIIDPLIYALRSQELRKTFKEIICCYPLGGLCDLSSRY
T1 sequence (Q01726 whole entry): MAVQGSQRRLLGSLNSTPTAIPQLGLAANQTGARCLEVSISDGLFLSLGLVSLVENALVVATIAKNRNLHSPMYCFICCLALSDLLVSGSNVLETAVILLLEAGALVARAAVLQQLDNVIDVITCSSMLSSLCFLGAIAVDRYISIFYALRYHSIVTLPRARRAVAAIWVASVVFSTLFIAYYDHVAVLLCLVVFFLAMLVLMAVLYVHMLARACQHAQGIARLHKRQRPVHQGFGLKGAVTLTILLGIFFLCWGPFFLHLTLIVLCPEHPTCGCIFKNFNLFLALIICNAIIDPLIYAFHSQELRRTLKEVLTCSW

Compound: COc1ccccc1CCNCC1c2ccccc2CN(CCCCC(CN)NCc2ccccc2)C1c1cccc(Oc2ccccc2)c1 (centres unmarked) [TRG 2414-91]
- pIC50 [1, 3]: 5.49
- pIC50 [2, 4]: 5.56

Compound: CCn1c2ccccc2c2cc(C3C(CNCc4ccccc4O)c4ccccc4CN3CCN)ccc21 (centres unmarked) [TRG 2406-20]
- pIC50 [1, 7]: 4.97
- pIC50 [2, 7]: 5.48

Compound: CCNc1ccc(C2C(CN)c3ccccc3CN2CCCC(CN)NCCc2ccc(Br)cc2)cc1 (centres unmarked) [TRG 2411-180]
- pIC50 [1, 8]: 6.92
- pIC50 [2, 9]: 5.97

Compound: CC(C)Oc1ccc(C2C(CO)c3ccccc3CN2CCCC(CN)NCCC2CCCCC2)cc1 (centres unmarked) [TRG 2415-5]
- pIC50 [1, 8]: 5.60
- pIC50 [2, 9]: 6.02

Compound: CCCOc1ccc(C2C(CNCCc3ccc(OC)cc3)c3ccccc3CN2CCCCC(CN)NCc2ccccc2)cc1 (centres unmarked) [Cmpd 187]
- pIC50 [1, 10]: 5.97
- pIC50 [2, 11]: 5.83

Compound: CCCOc1ccc(C2C(CNCCc3cccc(Cl)c3)c3ccccc3CN2CCCCC(N)CN)cc1 (centres unmarked) [Cmpd 280]
- MC-1 IC50 [1, 10]: no fit
- MC-4 IC50 [2, 11]: no fit

Compound: NCCNC(CN)CCN1Cc2ccccc2C(CNC2CCCCC2)C1c1ccc(Cl)cc1Cl (centres unmarked) [TRG 2408-103]
- pIC50 [1, 12]: 5.27
- pIC50 [2, 12]: 5.06

Compound: CCNc1ccc(C2C(CN)c3ccccc3CN2CCCC(CN)NCC2CC2CNCCc2ccccc2)cc1 (centres unmarked) [TRG 2420-28]
- pIC50 [1, 8]: 6.69
- pIC50 [2, 9]: 5.39

Compound: CCNc1ccc(C2C(CNCCc3ccccc3)c3ccccc3CN2CCCC(CN)NCC2CC2CN(CC)CC)cc1 (centres unmarked) [TRG 2420-7]
- pIC50 [1, 8]: 7.20
- pIC50 [2, 9]: 5.74

Compound: COc1cccc(CCNCC2c3ccccc3CN(CCCCC(CN)NCc3ccccc3)C2c2cccc(C(F)(F)F)c2)c1 (centres unmarked) [TRG 2421-47]
- pIC50 [1, 8]: 5.57
- pIC50 [2, 9]: 5.86

Compound: CCOc1ccccc1CNCC1c2ccccc2CN(CCCCC(N)CN)C1c1cccc(Oc2ccccc2)c1 (mixture of isomers) [TRG 2414-85]
- pIC50 [1, 3]: 5.61
- pIC50 [2, 4]: 5.66

Compound: CC(C)Cc1ccc(C(C)CNC(CN)CCCCN2Cc3ccccc3C(CNC3CCCCC3)C2c2ccccc2Br)cc1 (centres unmarked) [Cmpd 240]
- pIC50 [1, 10]: 5.05
- pIC50 [2, 11]: 5.00

Compound: CNC(CN)CCCN1Cc2ccccc2C(CNC2CCCCC2)C1c1ccc(-c2ccccc2)cc1 (centres unmarked) [TRG 2408-80]
- pIC50 [1, 12]: 5.66
- pIC50 [2, 12]: 4.91

Compound: CCCCNc1ccc(C2C(CNCCc3ccccc3)c3ccccc3CN2CCCC(CN)NCCC2CCCCC2)cc1 (centres unmarked) [TRG 2411-200]
- pIC50 [1, 8]: 6.89
- pIC50 [2, 9]: 5.87

Compound: CCCCNc1ccc(C2C(CNC3CCCCC3)c3ccccc3CN2CCCC(CN)NCCc2ccc(Br)cc2)cc1 (centres unmarked) [TRG 2411-208]
- pIC50 [1, 8]: 6.33
- pIC50 [2, 9]: 6.07

Continued, in another order:

- pIC50 [1, 5]: 7.40
- pIC50 [2, 6]: 5.83
Compound: CCCCNc1ccc(C2C(CN)c3ccccc3CN2CCCCC(CN)NCCC2CCCCC2)cc1 (centres unmarked) [TRG 2411-111]
- effectiveness as MC receptor ligand ([1]; binding to MC receptors, Table 1): particularly effective MC receptor ligands

- pIC50 [1, 5]: 5.58
- pIC50 [2, 6]: 4.83
Compound: CNC(CN)CCCCN1Cc2ccccc2C(CNC2CCCCC2)C1c1ccc(NCCc2ccc(OC)cc2)cc1 (centres unmarked) [TRG 2409-21]

- pIC50 [1, 7]: 5.27
- pIC50 [2, 7]: 5.21
Compound: CNC(CN)CCCCN1Cc2ccccc2C(CN(C)Cc2ccccc2)C1c1ccc(Cl)cc1Cl (centres unmarked) [TRG 2407-11]

- pIC50 [1, 3]: 5.50
- pIC50 [2, 4]: 5.21
Compound: COc1ccc(CNCC2c3ccccc3CN(CCCCC(CN)NCc3ccccc3)C2c2ccc(Cl)cc2Cl)cc1 (centres unmarked) [TRG 2414-23]

- pIC50 [1, 8]: 7.05
- pIC50 [2, 9]: 6.29
Compound: CCNc1ccc(C2C(CNCCc3ccccc3)c3ccccc3CN2CCCC(CN)NCc2ccc(OC)cc2)cc1 (centres unmarked) [TRG 2411-160]

- pIC50 [1, 3]: 5.83
- pIC50 [2, 4]: 5.39
Compound: CCCOc1ccc(C2C(CNCc3ccc(OC)cc3)c3ccccc3CN2CCCCC(CN)NCCc2ccccc2)cc1 (centres unmarked) [TRG 2414-182]

- pIC50 [1, 5]: 6.62
- pIC50 [2, 6]: 5.82
Compound: CCCCNc1ccc(C2C(CNC3CCCCC3)c3ccccc3CN2CCCCC(CN)NCCCC)cc1 (centres unmarked) [TRG 2411-88]

- pIC50 [1, 3]: 5.20
- pIC50 [2, 4]: 5.37
Compound: NCC(CCCCN1Cc2ccccc2C(CNC2CCCCC2)C1c1cc(C(F)(F)F)cc(C(F)(F)F)c1)NCCc1ccccc1 (centres unmarked) [TRG 2414-78]
